Here are results for six molecules from patent publication US20100016400A1, “AZABICYCLIC MUSCARINIC RECEPTOR ANTAGONISTS” (priority 2004, published 2010).

What is called melting point is the temperature, or range, at which the solid turns liquid.

On to `CN(C)C1C2CN(C(=O)C(O)(c3ccccc3)C3CCCCC3)CC21` (stereo not drawn), for which the melting point was 71.3 to 72.7 °C.
In the case of `CNC1C2CN(C(=O)C(O)(c3ccc(C)cc3)C(F)(F)F)CC21` (stereo not drawn) it was 178 to 179.4 °C; in that of `CNCC1C2CN(C(=O)C(O)(c3ccccc3)C3CCCCC3)CC12` (stereo not drawn), 140 to 142 °C.
Then `CNCC1C2CN(C(=O)C(O)(c3ccc(C)cc3)C(F)(F)F)CC12` (stereo not drawn), with 191 to 194 °C; and `CNCC1C2CN(C(=O)C(O)(c3ccccc3)C(F)(F)F)CC12` (stereo not drawn), with 110 to 113 °C.
Then `CNC1C2CN(C(=O)C(O)(c3ccccc3)C(F)(F)F)CC21` (stereo not drawn), with 179.7 to 182 °C.
